Assay results published in patent EP1808178A1, “Composition comprising Astragalus radix extracts for treating prostate cancer” (Golden Biotechnology Corp., priority 2005, dated 2007).

Tested on: human prostate cancer cell lines- LNCaP cells
Test: In vitro mode adjunctive treatment activity assay with Taxol (MTT colorimetric cell survival)
Assay type: cell-based
Settings: PCF1 concentration 0.0 µL/mL, i.e. Taxol (2nM) alone
Procedure: Utilize in vitro filter mode for human prostate cancer cell lines- LNCaP cells. Where human prostate cancer cell lines - LNCaP cells is being cultured in the culture medium which is supplemented by fetalbovine serum for 24 hours, and process cells by Taxol for 72 hours, and then change the culture medium so as to culture it in a new culture medium by adding assay sample for 72 hours, afterwards evaluate the cell survival rate by MIT colorimetric analysis method.
? The assay analysis of the compositions in accordance with the present invention in effect for suppressing the growth of human prostate cancer cells, wherein it is necessary to compute the cell survival rate for cells in each well of96-well microplate, afterwards evaluate the cancer cells survival rate by MIT colorimetric analysis method.
? MTT colorimetric analysis method: MTT is a kind of tertrazolium salt, with a full name of 3-[4, 5-Dimenthylthialzol-2-yl] 2, 5-diphenyltetrazoliumbromide, which is the yellow dye, capable to be absorbed by live cells and also be reduced to blue color formazan by succinate-tetrazoliumreductase in mitochondrion, which is commonly used for filtering the affection for matters to the growth and proliferation of cells.

## CC(=O)O[C@H]1C(=O)[C@@]2(C)[C@H]([C@H](OC(=O)c3ccccc3)[C@]3(O)C[C@H](OC(=O)[C@H](O)[C@@H](NC(=O)c4ccccc4)c4ccccc4)C(C)=C1C3(C)C)[C@]1(OC(C)=O)CO[C@@H]1C[C@@H]2O [Taxol]
  Cell Survival Rate (%): 56.4%
